From patent US11584765B2 (priority 2017, dated 2023) come the findings set out here.

For this assay, the system named is C57BL/6 mice. Put plainly: animal or person. It is filed as in vivo. The conditions noted are these: Mus musculus, sc, 0.5 h, s.c. administration, 30 min, 55° C. water, read-out: ED50 (mg/kg) at 30 min on C57BL/6 mice in Warm-water Tail-flick Test. For orientation: Thermal pain tests record how soon the animal reacts.
Regarding `CCOC[C@@]1(CCc2cscc2C)CCN(Cc2cccnc2)C1` [Compound 385, (S)-3-((3-(ethoxymethyl)-3-(2-(4-methylthiophen-3-yl)ethyl)pyrrolidin-1-yl)methyl)pyridine], the ED50 was below 10 mg/kg.
As for `CCOC[C@@]1(CCc2cccs2)CCN(C(C)(C)c2cnn(C)c2)C1.Cl` [Compound 386, (S)-4-(2-(3-(ethoxymethyl)-3-(2-(thiophen-2-yl)ethyl)pyrrolidin-1-yl)propan-2-yl)-1-methyl-1H-pyrazole HCl], the ED50 is below 10 mg/kg.
Take `CCOC[C@@]1(CCc2ccsc2)CCN(C(C)c2cccnc2)C1` (stereo partly drawn) [Compound 387, 3-(1-((S)-3-(ethoxymethyl)-3-(2-(thiophen-3-yl)ethyl)pyrrolidin-1-yl)ethyl)pyridine]: the ED50 was below 10 mg/kg.
Under `CC(C)OC[C@@]1(CCc2cccs2)CCN(Cc2cccnc2)C1` [Compound 388, (S)-3-((3-(isopropoxy-methyl)-3-(2-(thiophen-2-yl)ethyl)pyrrolidin-1-yl)methyl)pyridine] stands below 10 mg/kg; under `COC[C@@]1(CCc2cccs2)CCN(Cc2cccnc2)C1` [Compound 389, (S)-3-((3-(methoxymethyl)-3-(2-(thiophen-2-yl)ethyl)pyrrolidin-1-yl)methyl)pyridine], below 10 mg/kg; under `c1ccc(C2(CCc3cccs3)CCN(Cc3cccnc3)C2)nc1` (stereo not shown) [Compound 390, 2-(1-(pyridin-3-ylmethyl)-3-(2-(thiophen-2-yl)ethyl)pyrrolidin-3-yl)pyridine], above 10 mg/kg.
For the molecule `Cc1ccc(CN2CC[C@@](CCc3ccsc3)(C3CCCO3)C2)cn1.Cl` (stereo partly drawn) [Compound 391, 2-methyl-5-(((3R)-3-(tetrahydrofuran-2-yl)-3-(2-(thiophen-3-yl)ethyl)pyrrolidin-1-yl)methyl)pyridine HCl], the ED50 is below 10 mg/kg.
Under `FC(F)OC[C@@]1(CCc2cccs2)CCN(Cc2cccnc2)C1` [Compound 392, (S)-3-((3-((difluorometh-oxy)methyl)-3-(2-(thiophen-2-yl)ethyl)pyrrolidin-1-yl)methyl)pyridine] stands below 10 mg/kg; under `CCOC1(CCc2cccs2)CCN(Cc2cccnc2)C1` (stereo not shown) [Compound 393, 3-((3-ethoxy-3-(2-(thiophen-2-yl)ethyl)pyrrolidin-1-yl)methyl)pyridine], above 10 mg/kg.
`CCOCC1(CCc2cccs2)CN(Cc2cccnc2)C1` [Compound 394, 3-((3-(ethoxymethyl)-3-(2-(thiophen-2-yl)ethyl)azetidin-1-yl)methyl)pyridine]: the ED50 is above 10 mg/kg.
For `CCOC[C@@]1(CCc2cccs2)CCN(C2(c3cccnc3)CC2)C1` [Compound 395, (S)-3-(1-(3-(ethoxymethyl)-3-(2-(thiophen-2-yl)ethyl)pyrrolidin-1-yl)cyclopropyl)pyridine], the ED50 was below 10 mg/kg.
With `CC(C)(c1cccnc1)N1CCC(CCc2cccs2)(c2ccccn2)CC1` [Compound 396, 2-(1-(2-(pyridin-3-yl)propan-2-yl)-4-(2-(thiophen-2-yl)ethyl)piperidin-4-yl)pyridine], the ED50 is below 10 mg/kg.
Take `Cc1ccc(CN2C3CCC2CC(CCc2cccs2)(c2ccccn2)C3)cn1` (stereo not shown) [Compound 397, 8-((6-methylpyridin-3-yl)methyl)-3-(pyridin-2-yl)-3-(2-(thiophen-2-yl)ethyl)-8-azabicyclo[3.2.1]octane]: the ED50 was above 10 mg/kg.
As to `CCOC[C@@]1(CCc2ccc(F)cn2)CCN(C2(c3cnc4c(c3)CCCC4)CC2)C1` [Compound 398, (S)-3-(1-(3-(ethoxymethyl)-3-(2-(5-fluoropyridin-2-yl)ethyl)pyrrolidin-1-yl)cyclopropyl)-5,6,7,8-tetrahydroquinoline], the ED50 is below 10 mg/kg.
In the case of `CCOCC1(CCc2ccccc2)CCN(C(CC)(CC)c2ccc(C)nc2)CC1` [Compound 399, 5-(3-(4-(ethoxymethyl)-4-phenethylpiperidin-1-yl)pentan-3-yl)-2-methylpyridine], the ED50 was above 10 mg/kg.
On to `CCOCC1(CCc2ccccc2)CCN(C(CC)c2cnc(C)cc2CC)CC1` (stereo not shown) [Compound 400, 5-(1-(4-(ethoxymethyl)-4-phenethylpiperidin-1-yl)propyl)-4-ethyl-2-methylpyridine], for which the ED50 is below 10 mg/kg.
As to `CCOC(C)(C)[C@@]1(CCc2cccs2)CCN(C(C)(C)c2ccc(C)nc2)C1` [Compound 402, (S)-5-(2-(3-(2-ethoxypropan-2-yl)-3-(2-(thiophen-2-yl)ethyl)pyrrolidin-1-yl)propan-2-yl)-2-methylpyridine], the ED50 is below 10 mg/kg.
Take `CCOC(C)(C)[C@@]1(CCc2cccs2)CCN(C(C)c2ccc(C)nc2C)C1` (stereo partly drawn) [Compound 403, 3-(1-((S)-3-(2-ethoxypropan-2-yl)-3-(2-(thiophen-2-yl)ethyl)pyrrolidin-1-yl)ethyl)-2,6-dimethylpyridine]: the ED50 was below 10 mg/kg.
Next, `CCOC[C@@]1(CCc2cccs2)CCN(Cc2c(C)ccnc2C)C1` [Compound 404, (S)-3-((3-(ethoxymethyl)-3-(2-(thiophen-2-yl)ethyl)pyrrolidin-1-yl)methyl)-2,4-dimethylpyridine]: below 10 mg/kg.
On to `CCOC[C@@]1(CCc2cccs2)CCN(Cc2cccnn2)C1` [Compound 405, (S)-3-((3-(ethoxymethyl)-3-(2-(thiophen-2-yl)ethyl)pyrrolidin-1-yl)methyl)pyridazine], for which the ED50 is above 10 mg/kg.
With `CCOC[C@@]1(CCc2cccnn2)CCN(Cc2cccnc2)C1` [Compound 406, (S)-3-(2-(3-(ethoxymethyl)-1-(pyridin-3-ylmethyl)pyrrolidin-3-yl)ethyl)pyridazine], the ED50 was above 10 mg/kg.
Under `CCOC[C@@]1(CCc2ccc(C)s2)CCN(Cc2cnn(C)c2)C1` [Compound 407, (S)-4-((3-(ethoxymethyl)-3-(2-(5-methylthiophen-2-yl)ethyl)pyrrolidin-1-yl)methyl)-1-methyl-1H-pyrazole] stands below 10 mg/kg.
With `CCOC[C@@]1(CCc2ccc(C)s2)CCN(Cc2ccc(C)nc2)C1` [Compound 408, (S)-5-((3-(ethoxymethyl)-3-(2-(5-methylthiophen-2-yl)ethyl)pyrrolidin-1-yl)methyl)-2-methylpyridine], the ED50 is below 10 mg/kg.
Turning to `CCOC[C@@]1(CCc2ccc(C)s2)CCN(Cc2ccc(C)nc2C)C1` [Compound 409, (S)-3-((3-(ethoxymethyl)-3-(2-(5-methylthiophen-2-yl)ethyl)pyrrolidin-1-yl)methyl)-2,6-dimethylpyridine], the ED50 is below 10 mg/kg.
In the case of `c1ccc(C2(CCc3cccs3)CCN(Cc3cccnc3)CC2)nc1` [Compound 410, 2-(1-(pyridin-3-ylmethyl)-4-(2-(thiophen-2-yl)ethyl)piperidin-4-yl)pyridine], the ED50 is below 10 mg/kg.
Consider `Cc1ccc(C(C)(C)N2CC[C@@](CO)(CCc3cccs3)C2)cn1` [Compound 411, (S)-(1-(2-(6-methylpyridin-3-yl)propan-2-yl)-3-(2-(thiophen-2-yl)ethyl)pyrrolidin-3-yl)methanol], for which the ED50 is below 10 mg/kg.
Take `OC[C@@]1(CCc2cccs2)CCN(Cc2cccnc2)C1` [Compound 412, (S)-(1-(pyridin-3-ylmethyl)-3-(2-(thiophen-2-yl)ethyl)pyrrolidin-3-yl)methanol]: the ED50 is below 10 mg/kg.
In the case of `Cc1ccc(CN2CC[C@@](CO)(CCc3cccs3)C2)cn1` [Compound 413, (S)-(1-((6-methylpyridin-3-yl)methyl)-3-(2-(thiophen-2-yl)ethyl)pyrrolidin-3-yl)methanol], the ED50 is below 10 mg/kg.
